Test results as given in patent US20240208992A1, “MACROCYCLES AS CFTR MODULATORS” (Idorsia Pharmaceuticals Ltd, priority 2021, published 2024).

Biological target: human F508del-CFTR (Homo sapiens, UniProt P13569, DEL508-508)
Test: F508del-CFTR cell surface expression (corrector activity), DiscoveRx ß-galactosidase complementation chemiluminescence assay in recombinant U2OS cell line;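 further: U2OS cells co-expressing ProLink-tagged F508del-CFTR and a membrane-anchored enzyme acceptor, where more surface CFTR restores β-galactosidase activity measured by chemiluminescence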
Conditions: for EC50: EC50, F508del-CFTR cell surface expression, U2OS cells, 16h compound incubation, geomean values; for Emax: U2OS, in relation to Emax of corrector lumacaftor (=100%), arithmetic mean values

Chain of human F508del-CFTR (P13569 with tags, fused parts or gaps DEL508-508): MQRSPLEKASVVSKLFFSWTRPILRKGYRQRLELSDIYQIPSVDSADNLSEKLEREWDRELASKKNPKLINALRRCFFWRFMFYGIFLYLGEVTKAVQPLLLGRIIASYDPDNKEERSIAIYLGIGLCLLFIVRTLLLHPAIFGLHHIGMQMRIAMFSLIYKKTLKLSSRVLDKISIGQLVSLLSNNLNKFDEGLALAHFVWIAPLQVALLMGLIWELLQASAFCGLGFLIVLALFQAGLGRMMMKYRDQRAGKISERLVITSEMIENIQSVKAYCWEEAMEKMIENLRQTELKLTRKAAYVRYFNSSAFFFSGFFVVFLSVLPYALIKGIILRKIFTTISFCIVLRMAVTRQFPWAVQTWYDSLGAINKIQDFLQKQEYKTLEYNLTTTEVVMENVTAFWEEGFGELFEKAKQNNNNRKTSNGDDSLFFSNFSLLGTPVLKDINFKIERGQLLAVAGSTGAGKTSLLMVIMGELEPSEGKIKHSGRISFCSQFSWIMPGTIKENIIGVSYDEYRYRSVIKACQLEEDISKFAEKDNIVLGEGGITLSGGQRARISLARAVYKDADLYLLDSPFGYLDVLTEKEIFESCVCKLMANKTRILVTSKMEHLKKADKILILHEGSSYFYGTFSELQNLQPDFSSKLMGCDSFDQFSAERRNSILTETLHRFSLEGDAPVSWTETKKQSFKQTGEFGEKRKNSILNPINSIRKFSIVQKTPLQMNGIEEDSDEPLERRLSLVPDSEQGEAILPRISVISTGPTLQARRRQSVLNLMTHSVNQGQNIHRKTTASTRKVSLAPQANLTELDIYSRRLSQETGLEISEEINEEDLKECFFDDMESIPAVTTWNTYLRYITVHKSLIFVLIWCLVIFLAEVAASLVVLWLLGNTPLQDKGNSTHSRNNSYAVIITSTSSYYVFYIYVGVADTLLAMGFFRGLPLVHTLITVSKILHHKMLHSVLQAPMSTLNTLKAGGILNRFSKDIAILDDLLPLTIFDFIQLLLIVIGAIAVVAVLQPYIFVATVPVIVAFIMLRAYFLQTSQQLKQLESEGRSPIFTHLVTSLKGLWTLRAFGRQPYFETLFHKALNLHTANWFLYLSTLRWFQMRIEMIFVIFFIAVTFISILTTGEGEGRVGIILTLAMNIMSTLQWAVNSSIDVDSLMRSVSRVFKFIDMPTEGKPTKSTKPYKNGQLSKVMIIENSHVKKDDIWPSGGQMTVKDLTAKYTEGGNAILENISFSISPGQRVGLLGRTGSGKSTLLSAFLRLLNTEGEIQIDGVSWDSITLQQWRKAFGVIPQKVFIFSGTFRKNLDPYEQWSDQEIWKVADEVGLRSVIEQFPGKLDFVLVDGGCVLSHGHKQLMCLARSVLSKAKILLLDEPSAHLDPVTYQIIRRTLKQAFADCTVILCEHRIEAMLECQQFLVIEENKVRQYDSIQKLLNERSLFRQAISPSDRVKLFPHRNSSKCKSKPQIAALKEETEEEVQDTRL

| EC50 [nM] | Emax [%] | SMILES |
| --- | --- | --- |
| 173 | 305 | CC(C)C[C@H]1C(=O)N2CCCC[C@@H]2C(=O)N[C@H](Cc2ccccc2)COc2cnc3ccc(F)cc3c2C(=O)N[C@H](C(=O)NCCc2cc(C3CC3)on2)CC(=O)N1C [Example 639, (9S,13S,19aR,22R)-22-benzyl-N-(2-(5-cyclopropylisoxazol-3-yl)ethyl)-5-fluoro-13-isobutyl-12-methyl-7,11,14,20-tetraoxo-7,8,9,10,11,12,13,14,17,18,19,19a,20,21,22,23-hexadecahydro-16H-pyrido[2′,1′:6,7][1]oxa[4,7,10,14]tetraazacycloheptadecino[17,16-c]quinoline-9-carboxamide] |
| 132 | 339 | CC(C)C[C@H]1C(=O)N2CCCC[C@@H]2C(=O)N[C@H](Cc2ccccc2)COc2cnc3ccc(F)cc3c2C(=O)N[C@H](C(=O)NCCc2cc(C3CC3)no2)CC(=O)N1C [Example 640, (9S,13S,19aR,22R)-22-benzyl-N-(2-(3-cyclopropylisoxazol-5-yl)ethyl)-5-fluoro-13-isobutyl-12-methyl-7,11,14,20-tetraoxo-7,8,9,10,11,12,13,14,17,18,19,19a,20,21,22,23-hexadecahydro-16H-pyrido[2′,11:6,7][1]oxa[4,7,10,14]tetraazacycloheptadecino[17,16-c]quinoline-9-carboxamide] |
| 277 | 270 | CC(C)C[C@H]1C(=O)N2CCOC[C@@H]2C(=O)N[C@H](Cc2ccccc2)COc2cnc3ccc(F)cc3c2C(=O)N[C@H](C(=O)NCCc2cc(C3CC3)no2)CC(=O)N1C [Example 644, (9S,13S,19aR,22R)-22-benzyl-N-(2-(3-cyclopropylisoxazol-5-yl)ethyl)-5-fluoro-13-isobutyl-12-methyl-7,11,14,20-tetraoxo-7,8,9,10,11,12,13,14,16,17,19,19a,20,21,22,23-hexadecahydro-[1,4]oxazino[3′,4′:6,7][1]oxa[4,7,10,14]tetraazacycloheptadecino[17,16-c]quinoline-9-carboxamide] |

The remaining lines, values behind:

| SMILES | EC50 [nM] | Emax [%] |
| --- | --- | --- |
| CC(C)C[C@H]1C(=O)N2CCCC[C@@H]2C(=O)N[C@H](Cc2ccccc2)COc2cnc3c(F)cccc3c2C(=O)N[C@H](C(=O)NCCc2cc(C3CC3)on2)CC(=O)N1C [Example 638, (9S,13S,19aR,22R)-22-benzyl-N-(2-(5-cyclopropylisoxazol-3-yl)ethyl)-3-fluoro-13-isobutyl-12-methyl-7,11,14,20-tetraoxo-7,8,9,10,11,12,13,14,17,18,19,19a,20,21,22,23-hexadecahydro-16H-pyrido[2′,11:6,7][1]oxa[4,7,10,14]tetraazacycloheptadecino[17,16-c]quinoline-9-carboxamide] | 182 | 297 |
| CC(C)C[C@H]1C(=O)N2CCCC[C@@H]2C(=O)N[C@H](Cc2ccccc2)COc2cnc3ccc(F)cc3c2C(=O)N[C@H](C(=O)NCCc2nc(C3CC3)no2)CC(=O)N1C [Example 641, (9S,13S,19aR,22R)-22-benzyl-N-(2-(3-cyclopropyl-1,2,4-oxadiazol-5-yl)ethyl)-5-fluoro-13-isobutyl-12-methyl-7,11,14,20-tetraoxo-7,8,9,10,11,12,13,14,17,18,19,19a,20,21,22,23-hexadecahydro-16H-pyrido[2′,1′:6,7][1]oxa[4,7,10,14]tetraazacycloheptadecino[17,16-c]quinoline-9-carboxamide] | 87 | 305 |
| CC(C)C[C@H]1C(=O)N2CCCC[C@@H]2C(=O)N[C@H](Cc2ccccc2)COc2cnc3ccccc3c2C(=O)N[C@H](C(=O)NCCc2cc(C3CC3)no2)CC(=O)N1C [Example 642, (9S,13S,19aR,22R)-22-benzyl-N-(2-(3-cyclopropylisoxazol-5-yl)ethyl)-13-isobutyl-12-methyl-7,11,14,20-tetraoxo-7,8,9,10,11,12,13,14,17,18,19,19a,20,21,22,23-hexadecahydro-16H-pyrido[2′,1′:6,7][1]oxa[4,7,10,14]tetraazacycloheptadecino[17,16-c]quinoline-9-carboxamide] | 168 | 366 |
| CC(C)C[C@H]1C(=O)N2CCOC[C@@H]2C(=O)N[C@H](Cc2ccccc2)COc2cnc3ccc(F)cc3c2C(=O)N[C@H](C(=O)NCCc2cc(C3CC3)on2)CC(=O)N1C [Example 643, (9S,13S,19aR,22R)-22-benzyl-N-(2-(5-cyclopropylisoxazol-3-yl)ethyl)-5-fluoro-13-isobutyl-12-methyl-7,11,14,20-tetraoxo-7,8,9,10,11,12,13,14,16,17,19,19a,20,21,22,23-hexadecahydro-[1,4]oxazino[3′,4′:6,7][1]oxa[4,7,10,14]tetraazacycloheptadecino[17,16-c]quinoline-9-carboxamide] | 220 | 270 |
| CC(C)C[C@H]1C(=O)N2CCOC[C@@H]2C(=O)N[C@H](Cc2ccccc2)COc2cnc3ccc(F)cc3c2C(=O)N[C@H](C(=O)NCCc2nc(C3CC3)no2)CC(=O)N1C [Example 645, (9S,13S,19aR,22R)-22-benzyl-N-(2-(3-cyclopropyl-1,2,4-oxadiazol-5-yl)ethyl)-5-fluoro-13-isobutyl-12-methyl-7,11,14,20-tetraoxo-7,8,9,10,11,12,13,14,16,17,19,19a,20,21,22,23-hexadecahydro-[1,4]oxazino[3′,4′:6,7][1]oxa[4,7,10,14]tetraazacycloheptadecino[17,16-c]quinoline-9-carboxamide] | 289 | 211 |
| CCN1C(=O)C[C@@H](C(=O)NCCc2nc(C3CC3)no2)NC(=O)c2c(cnc3ccccc23)OC[C@@H](Cc2ccccc2)NC(=O)[C@H]2CCCCN2C(=O)[C@@H]1CC(C)C [Example 646, (9S,13S,19aR,22R)-22-benzyl-N-(2-(3-cyclopropyl-1,2,4-oxadiazol-5-yl)ethyl)-12-ethyl-13-isobutyl-7,11,14,20-tetraoxo-7,8,9,10,11,12,13,14,17,18,19,19a,20,21,22,23-hexadecahydro-16H-pyrido[2′,1′:6,7][1]oxa[4,7,10,14]tetraazacycloheptadecino[17,16-c]quinoline-9-carboxamide] | 158 | 201 |
| COc1cccc(CCNC(=O)[C@@H]2CC(=O)N(C)[C@@H](CC(C)C)C(=O)N(C)CC(=O)N[C@H](Cc3ccccc3)COc3cnc(OC)cc3C(=O)N2)c1 [Example 647, (3R,9S,13S)-3-benzyl-9-isobutyl-17-methoxy-N-(3-methoxyphenethyl)-7,10-dimethyl-5,8,11,15-tetraoxo-2,3,4,5,6,7,8,9,10,11,12,13,14,15-tetradecahydropyrido[4,3-p][1]oxa[4,7,10,14]tetraazacycloheptadecine-13-carboxamide] | 820 | 182 |
| COc1cc2c(cn1)OC[C@@H](Cc1ccccc1)NC(=O)C1(CC1)N(C)C(=O)[C@H](CC(C)C)N(C)C(=O)C[C@@H](C(=O)NCCc1cc(C3CC3)no1)NC2=O [Example 648, (3′R,9′S,13′S)-3′-benzyl-N-(2-(3-cyclopropylisoxazol-5-yl)ethyl)-9′-isobutyl-17′-methoxy-7′,10′-dimethyl-5′,8′,11′,15′-tetraoxo-2′,3′,4′,5′,8′,9′,10′,11′,12′,13′,14′,15′-dodecahydro-7′H-spiro[cyclopropane-1,6′-pyrido[4,3-p][1]oxa[4,7,10,14]tetraazacycloheptadecine]-13′-carboxamide] | 748 | 159 |
